In patent US20200375929A1, “METHODS AND COMPOSITIONS FOR THE TREATMENT OF DISEASES ASSOCIATED WITH CANCER, INFLAMMATION, OR IMMUNE RESPONSE” (Washington University, priority 2017, published 2020):
Entries after “also recorded” stand apart in the source; their conditions may differ.

Experiments:
Nfkbiz 3′UTR = Nfkbiz 3′UTR GFP reporter in BV2 cells (flow cytometry); assay type: cell-based, mouse; settings: DI 250 μM 12 h, LPS 1 h
Description: Mouse Nfkbiz 3′UTR Lenti-reporter-GFP (#MT-m64048) vector or pLenti-UTR-GFR-Blank vector (#m014) were purchased from Applied Biological Materials. For lentiviral production transfection mixture of 1.5-mL of Opti-MEM medium (Invitrogen), 18 μg of psPAX2 (gift from Didier Trono, Addgene plasmid #12260), 13 μg of pCMV-V-SVG (gift from Bob Weinberg, Addgene plasmid #8454), 20 μg of lentiviral construct, and 105 μL of polyethylenimine (1 mg/mL; 25 kDa; linear form; Polysciences). The mixture was incubated at room temperature for 20 min and added to HEK-293T cells (ATCC) cultured in DMEM supplemented with 10% FBS, 2 mM L-glutamine and 100 U/mL penicillin-streptomycin in 150-cm2 tissue culture flask. 48 h later, virus-containing medium was filtered through […] pore-size cellulose acetate filters and used directly for BV2 transduction in the presence of polybrene (8 μg/mL, Millipore). […]
For ROS measurements, cells were treated with DI (250 μM), loaded with 10 μM CM-H2DCFDA (Invitrogen) at RT for 30 min in Hank's balanced salt solution (HBSS). After incubation, cell were rinsed with warm HBSS, harvested and directly analyzed. […] For Nfkbiz 3′UTR reporter analysis GFP signal was determined in live cells. […] Cells were acquired on CantoII or LSRII flow cytometers (Becton Dickinson), and data were analyzed with FlowJo v.9.5.2 software (Tree Star). […]

BMDMs = test: Glutathione (GSH) measurement in BMDMs; assay type: cell-based, mouse; settings: DI 250 μM
Description: Total GSH concentration in cells was determined by GSH/GSSH Ratio Detection Assay Kit (Abeam) according to manufacturer protocol. Briefly, 106 BMDMs were lysed in 100 μL of 0.5% NP-40 in PBS, pH 6. Samples were deproteinized using trichloroacetic acid and neutralized by addition of 1M NaHCO3 to achieve pH 4-6. Collected extracts were diluted with supplied assay buffer and directly used for GSH measurement.

EAE = EAE model of multiple sclerosis; assay type: in vivo, mouse; settings: daily DI administration
eIF2α = eIF2α phosphorylation in BMDMs (western blot); assay type: cell-based, mouse; settings: DI
Description: BMDM were prepared from 6- to 12-week-old mice as described 1 and cultured in RMPI-1640 medium supplemented with 10% fetal bovine serum (FBS), 2 mM L-glutamine, and 100 U/mL penicillin-streptomycin and mouse recombinant M-CSF ([…], Peprotech). For experiments, cells were seeded at concentration 10^6 cells/mL in tissue culture plates of various formats. […]
Cells were lysed in RIPA Lysis Buffer System (Santa Cruz) and heat-denatured at 95° C. for 5 min in reducing sample buffer (BioRad). […] Non-specific binding was blocked with 5% skim milk (or 5% BSA when phospho-proteins were analyzed), and membranes were probed with primary antibodies specific to Nrf2 (#12721), HO-1 (#70081), IκBζ (mouse specific, #93726), IκBζ(#9244), ATF3 (#D2Y5W), IRAK1 (#4504; sensitivity of IRAK1 detection diminishes upon IRAK1 K63 ubiquitination), phospho-IKK (Ser176/180, #2697), p62/SQSTM1 (#5114), phospho-eIF2α (Ser51, #9721), eIF2α (#5324) from Cell Signaling; GAPDH (sc-25778), IκBα (sc-1643), ATF3 (sc-188), SDHA (sc-166909) from Santa Cruz; NQO1 (ab28947) from Abeam, followed by incubation with anti-rabbit-HRP (1:10,000; sc-2030) or anti-mouse-HRP (1:10,000; sc-2031) from Santa Cruz and Clarity western ECL substrate (Bio-Rad). […]

Structure (SMILES): C=C(CC(=O)OC)C(=O)OC [DI, dimethyl itaconate]
- Nfkbiz 3′UTR reporter GFP expression (Nfkbiz 3′UTR): did not affect expression of reporter gene GFP; also recorded: not due to regulation of Nfkbiz 3′UTR
- GSH/GSSG ratio (BMDMs): substantial drop
- cellular GSH (BMDMs): substantial drop in cellular GSH; also recorded: substantial drop of cellular GSH concentration
- clinical development of EAE (EAE): ameliorated; also recorded: prevented clinical development of EAE
- eIF2α phosphorylation in Atf3−/− macrophages (eIF2α; Atf3−/− macrophages): failed to increase eIF2α phosphorylation
- eIF2α phosphorylation (eIF2α; WT macrophages): marked increase
